We go through one compound from patent publication US11998549B2, “Methods of treating a vascular leakage-associated disease or disorder” (UNITY HEALTH TORONTO, priority 2019, dated 2024).

The subject of experiment [1] is LPS-induced vascular leakage. The experiment in a line: Vascular leakage (leaked red blood cells in tailfin) in LPS-treated zebrafish larvae. Type of experiment: in vivo. How it is done: (§1) An LPS induced zebrafish sepsis model which mimics the hallmarks of human sepsis was developed (Philip et al., 2017). Zebrafish show varied susceptibility and responsiveness to LPS from different bacterial strains. Exposure of zebrafish larvae at 3 days post-fertilization (dpf) to two types of LPS (LPS from Escherichia coli 0111:B4 (Sigma) at 100 μg/ml for 5-6 hrs; or LPS from Salmonella at 27 μg/ml for 24 hrs) were both effective in inducing tail fin swelling, increased ROS production, increased vascular leakage and increased mortality.
3 dpf Tg (flk1:GFP; gata-1:Dsred) double transgenic larvae were exposed to Vehicle, LPS (100 μg/ml) or LPS+1 μM UNC0642 by static immersion for 6 h at 28.5° C. to induce endothe-lial dysfunction and the resulting leakage of red blood cells. The larvae were then imaged using a Leica fluorescence microscope (Leica Microsystems, Wetzlar, Germany). Red blood cells that leaked out into the tailfin region were quantified.
(§2) 3 dpf larvae were exposed to LPS by immersion technique. […] Control larvae were exposed to egg water. Survival numbers were recorded and EC50s calculated. The percentage (%) of embryos showing vascular leakage was also recorded and 1050s calculated.

A further experiment concerns HUVEC monolayer. As to the kind of experiment: Trans-endothelial electrical resistance (TEER) across HUVEC monolayer. The class given is cell-based, human. The following applies: LPS 1 μg/ml + UNC0642 2.5 nM, 24 h post treatment. How it is done:
To determine the functional significance of G9a inhibition in human cells, solute permeability and electrical resistance across a confluent HUVEC monolayer was assessed. For both experiments, HUVEC were seeded at 1×10^6 cells/ml on Matrigel™ coated 3-μm pore size transwell inserts in 24-well plates from BD Discovery Labware™ (catalog number 354575) and grown to confluency. The cells were then treated with either the vehicle, LPS (1 μg/ml) or LPS (1 μg/ml)+UNC0642 (2.5 nM).
Assessment of trans-endothelial electrical resistance (TEER): At 24 h post treatment, trans endothelial electrical resistance across the HUVEC monolayer was measured using the Endohm-12 (WPI, Florida). UNC0642 improves transendothelial electrical resistance (TEER) which is also an indicator of vessel integrity and stability. (FIG. 11, Panel B)

Experiment [2] concerns LPS induced zebrafish sepsis model. The experiment in a line: Survival in LPS induced zebrafish sepsis model. Type of experiment: in vivo. Particulars: 24 h. How it is done: as §1
Survival analyses for zebrafish (wildtype) exposed to various concentrations of LPS (Escherichia coli 0111:B4; Sigma) was performed. 3 dpf larvae were exposed to LPS by immersion technique. Larvae were treated with 10, 25, 50, 125, 250, 500, 1000, 2500, 5000 or 10000 nM UNC0642 along with 100 μg/ml LPS (LPS was dissolved in eggwater), by static immersion at 28.5° C. for 24 h in a total volume of 2 mL per treatment. Control larvae were exposed to egg water. Survival numbers were recorded and EC50s calculated.
as §2

The subject of experiment [3] is CLP-induced protein exudation into the alveolar space. As to the kind of experiment: Mouse CLP model, protein leakage into BALF. Type of experiment: in vivo. Particulars: intravenous infusion of 1 mg/kg. On the procedure: The CLP model is a well established clinically relevant model for human sepsis (Smeding et al., 2012; Amatullah et al., 2016). Male 8-12 week old C57/B16 mice (Jackson lab) were randomized to CLP or sham surgeries. In anesthetised mice, the cecum was exteriorized, ligated, and perforated. Control animals were exposed to sham surgery, in which the cecum was manipulated, but not ligated or punctured. After surgery, animals received daily fluid resuscitation (subcutaneous (s.c.) 50 ml/kg saline), antibiotic (intraperitoneal (i.p.) imipenem 25 mg/kg) and pain management (s.c. buprenorphine 0.2 mg/kg). Experiments were divided into 2 groups: (1) to assess 7-day survival, and (2) to identify a mechanism of action of a G9a inhibitor in vivo. All experimental mice were randomized and investigators were blinded to group assignment.
Assessment of protective effects of UNC0642 on sepsis-induced vascular leakage: lung injury score and loss of alveolar-capillary membrane integrity with increased albumin and IgM exudation into bronchoalveolar lavage fluid (BALF) was assessed at 24 hrs post treatment.

A further experiment deals with H3K9me2 in HPMECs. The experiment in a line: H3K9me2 Western blot in LPS-treated HPMECs. The class given is cell-based, human. The following applies: LPS 1 ug/ml +/- UNC0642 2.5 nM, 24 hours. (In general: In western blotting, separated proteins are transferred to a membrane and probed.)
Experiment [4] concerns VE cadherin in HUVEC cells. As to the kind of experiment: Immunostaining of VE cadherin in HUVEC cells. Particulars: LPS 1 μg/ml + UNC0642 2.5 nM, 24 hours. The class given is cell-based, human. On the procedure:
HUVEC cells were seeded onto Lab-Tek II Chamber slide system at 1×10^6 cells/ml and grown to confluency. At 80-95% confluency they were treated with either the vehicle, LPS (1 μg/ml), LPS (1 μg/ml)+UNC0642 (2.5 nM) or UNC0642 (2.5 nM) for 24 hours. Then the following steps for immunostaining were performed • 1. Fixed the cells in 4% formaldehyde in warm PBS for 20 minutes at room temperature • 2. Aspirated the fixative • 3. Washed 3 times in PBS, 5 minutes each • 4. Blocked in blocking buffer for 2 hours at room temperature • 5. Aspirated the blocking buffer • 6. Added primary antibody VE cadherin (monoclonal VE Cad; cell signalling 2500S) at a dilution of 1:200 and incubated overnight at 4° C. • 7. Washed 3 times in PBS, 10 minutes each • 8. Added secondary antibody (goat anti-rabbit IgG Alexa Fluor 568; 1:1000 and Alexa Fluor 488 phalloidin; 1:1,000) and incubated for 2 hours at room temperature. • 9. Washed the cells 3 times in PBS, 10 minutes each at room temperature and mounted with a cover slip in 4′,6-diamidino-2-phenylindole (DAPI) Vectashield.
Images were taken with a Zeiss™ confocal microscope. […] (FIG. 10)

Experiment [5] has as its system LPS-induced tailfin edema. As to the kind of experiment: Tailfin edema in LPS-treated zebrafish larvae. Type of experiment: in vivo. On the procedure: as §1

“Also recorded” adds a separate entry of the source.

Regarding `COc1cc2c(NC3CCN(C(C)C)CC3)nc(N3CCC(F)(F)CC3)nc2cc1OCCCN1CCCC1` [UNC0642, 2-(4,4-Difluoropiperidin-1-yl)-6-methoxy-N-[1-(propan-2-yl)piperidin-4-yl]-7-(3-(pyrrolidin-1-yl)propoxy]quinazolin-4-amine], the LPS-induced vascular leakage entry in experiment [1] (3 dpf larvae, LPS 100 μg/ml + 1 μM UNC0642, 6 h, leaked red blood cells at tail fin) is “significantly reduced”. For the same compound, in experiment [1] (comparison of UNC0642 and A366, zebrafish larvae, 27 μg/ml LPS, 24 h), the “Rescue of sepsis-associated vascular leakage” value is reported as “able to rescue”. Besides, in the experiment on HUVEC monolayer, the “Transendothelial electrical resistance (TEER)” value is “improves”. Besides, in experiment [2] (Escherichia coli, in Danio rerio, read-out: EC50 for improved survival of septic zebrafish larvae), the EC50 is 789 nM. The “Rescue of sepsis-associated mortality” value in experiment [2] (comparison of UNC0642 and A366, zebrafish larvae, 27 μg/ml LPS) was “able to rescue”. Moreover, in experiment [3], the “Protein exudation into the alveolar space (total alveolar protein in the BALF)” value is on record as “reduced protein exudation”. In the experiment on H3K9me2 in HPMECs, the “H3K9me2 by Western Blot” value is reported as “decreased H3K9me2; also recorded: reduction in this H3K9me2”. In addition, the “LPS-caused decrease in level and patterning of VE cadherin” value in experiment [4] is on record as “partially rescued”. The LPS-induced tailfin edema entry in experiment [5] is given as “significantly reduced”.

By EC50 is commonly meant the concentration at which the effect is half-maximal.
